Measured values reported in patent US20260242353A1, “HETEROARYL DERIVATIVES AS DDRs INHIBITORS” (CHIESI FARMACEUTICI S.P.A., priority 2022, published 2026).

Experiments:
DDR1 = target: T1, DDR1 (Homo sapiens, UniProt Q08345); experiment: LanthaScreen Europium Kinase Binding assay, DDR1; conditions: 5 nM DDR1, 20 nM Kinase Tracer 178, 1 h at rt; Ki from IC50 by Cheng-Prusoff; read-out: Ki DDR1
T1 construct: purchased Carna Biosciences
Outline: (§1)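 Compounds were incubated 1 h at rt with 5 nM DDR1 plus 20 nM Kinase Tracer 178, or 5 nM DDR2 plus 10 nM tracer, and 2 nM Eu anti-GST antibody in HEPES pH 7.5 buffer. Read-out was the TR-FRET 665/615 nm ratio. IC50 came from a 4-parameter fit and was converted to Ki by Cheng-Prusoff.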

DDR2 = target: T2, DDR2 (Homo sapiens, UniProt Q16832); experiment: LanthaScreen Europium Kinase Binding assay, DDR2; conditions: 5 nM DDR2, 10 nM Kinase Tracer 178, 1 h at rt; Ki from IC50 by Cheng-Prusoff; read-out: Ki DDR2
T2 construct: purchased Life Technologies
T2 sequence (Q16832 22-855): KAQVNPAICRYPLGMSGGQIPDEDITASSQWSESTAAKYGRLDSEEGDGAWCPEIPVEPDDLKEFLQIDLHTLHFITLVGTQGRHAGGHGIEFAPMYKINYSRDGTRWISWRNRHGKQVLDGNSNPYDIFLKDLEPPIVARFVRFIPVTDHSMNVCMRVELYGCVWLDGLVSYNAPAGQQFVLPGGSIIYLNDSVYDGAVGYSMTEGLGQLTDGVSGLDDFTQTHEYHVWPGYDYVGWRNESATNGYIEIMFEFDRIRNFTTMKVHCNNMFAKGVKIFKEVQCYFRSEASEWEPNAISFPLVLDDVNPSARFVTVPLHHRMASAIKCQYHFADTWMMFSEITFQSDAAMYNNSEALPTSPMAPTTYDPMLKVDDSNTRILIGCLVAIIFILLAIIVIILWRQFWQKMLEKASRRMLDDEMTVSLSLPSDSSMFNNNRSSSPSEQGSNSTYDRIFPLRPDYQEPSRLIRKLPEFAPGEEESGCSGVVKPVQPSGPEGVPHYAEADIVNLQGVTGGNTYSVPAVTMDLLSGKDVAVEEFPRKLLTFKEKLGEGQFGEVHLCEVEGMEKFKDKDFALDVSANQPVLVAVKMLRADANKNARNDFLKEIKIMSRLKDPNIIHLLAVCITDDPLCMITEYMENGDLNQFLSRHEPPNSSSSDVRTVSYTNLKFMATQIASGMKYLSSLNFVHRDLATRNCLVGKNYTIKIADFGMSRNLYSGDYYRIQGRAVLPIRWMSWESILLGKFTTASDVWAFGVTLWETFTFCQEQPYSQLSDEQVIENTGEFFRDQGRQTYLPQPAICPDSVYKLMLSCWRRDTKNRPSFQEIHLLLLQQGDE
Outline: as §1

T1 sequence (Q08345 19-913): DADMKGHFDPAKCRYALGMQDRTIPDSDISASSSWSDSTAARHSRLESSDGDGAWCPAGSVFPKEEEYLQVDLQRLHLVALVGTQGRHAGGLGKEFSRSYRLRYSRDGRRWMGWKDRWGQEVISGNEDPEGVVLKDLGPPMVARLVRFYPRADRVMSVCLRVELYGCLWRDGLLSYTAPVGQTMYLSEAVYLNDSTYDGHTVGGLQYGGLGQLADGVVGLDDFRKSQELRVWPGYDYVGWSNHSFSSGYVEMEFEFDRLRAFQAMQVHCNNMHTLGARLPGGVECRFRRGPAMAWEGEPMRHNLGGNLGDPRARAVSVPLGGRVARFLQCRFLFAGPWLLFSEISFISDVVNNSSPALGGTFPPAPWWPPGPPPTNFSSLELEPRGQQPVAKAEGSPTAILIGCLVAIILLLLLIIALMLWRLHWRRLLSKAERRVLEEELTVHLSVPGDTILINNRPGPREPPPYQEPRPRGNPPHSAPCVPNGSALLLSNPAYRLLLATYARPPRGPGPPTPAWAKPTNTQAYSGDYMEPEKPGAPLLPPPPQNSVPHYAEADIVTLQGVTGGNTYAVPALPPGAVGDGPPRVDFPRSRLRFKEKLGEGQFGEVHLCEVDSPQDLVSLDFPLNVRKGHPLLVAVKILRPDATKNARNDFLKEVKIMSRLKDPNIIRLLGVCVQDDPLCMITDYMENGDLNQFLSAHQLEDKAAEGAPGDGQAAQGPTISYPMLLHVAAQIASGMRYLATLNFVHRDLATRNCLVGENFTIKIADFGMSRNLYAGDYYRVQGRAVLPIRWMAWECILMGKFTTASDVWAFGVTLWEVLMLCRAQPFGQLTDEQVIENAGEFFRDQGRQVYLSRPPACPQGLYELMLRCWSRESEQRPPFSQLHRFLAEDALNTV

| Structure (SMILES) | Ki (DDR1) | Ki (DDR2) |
| --- | --- | --- |
| Cc1ccc(C(=O)Nc2cncc(C(F)(F)F)c2)cc1[C@@H]1CCN(c2cccc(C(N)=O)c2)C1 [Example 66, (S)-3-(1-(3-carbamoylphenyl)pyrrolidin-3-yl)-4-methyl-N-(5-(trifluoromethyl)pyridin-3-yl)benzamide] | 5 to 25 nM | 25 to 100 nM |
| Cc1ccc(C(=O)Nc2cc(C(F)(F)F)nn2C)cc1[C@@H]1CCN(c2cncnc2)C1 [Example 68, (S)-4-methyl-N-(1-methyl-3-(trifluoromethyl)-1H-pyrazol-5-yl)-3-(1-(pyrimidin-5-yl)pyrrolidin-3-yl)benzamide] | 5 to 25 nM | 5 to 25 nM |
| Cc1ccc(C(=O)Nc2cc(C3CC3)nn2C)cc1[C@@H]1CCN(c2cncnc2)C1 [Example 70, (S)-N-(3-cyclopropyl-1-methyl-1H-pyrazol-5-yl)-4-methyl-3-(1-(pyrimidin-5-yl)pyrrolidin-3-yl)benzamide] | 5 to 25 nM | 25 to 100 nM |
| COCCOc1cncc(N2CC[C@@H](c3cc(C(=O)Nc4cncc(C(F)(F)F)c4)ccc3C)C2)c1 [Example 79, (S)-3-(1-(5-(2-methoxyethoxy)pyridin-3-yl)pyrrolidin-3-yl)-4-methyl-N-(5-(trifluoromethyl)pyridin-3-yl)benzamide] | < 5 nM | 5 to 25 nM |
| Cc1ccc(C(=O)Nc2cncc(C(F)(F)F)c2)cc1[C@@H]1CCN(c2cnc3ccc(N4CCN(C)CC4)nn23)C1 [Example 80, (S)-4-methyl-3-(1-(6-(4-methylpiperazin-1-yl)imidazo[1,2-b]pyridazin-3-yl)pyrrolidin-3-yl)-N-(5-(trifluoromethyl)pyridin-3-yl)benzamide] | 5 to 25 nM | 5 to 25 nM |
| Cc1ccc(C(=O)Nc2cncc(C(F)(F)F)c2)cc1[C@@H]1CCN(c2cncc(OC3CCN(C)CC3)c2)C1 [Example 81, (S)-4-methyl-3-(1-(5-((1-methylpiperidin-4-yl)oxy)pyridin-3-yl)pyrrolidin-3-yl)-N-(5-(trifluoromethyl)pyridin-3-yl)benzamide] | < 5 nM | 5 to 25 nM |
| Cc1ccc(C(=O)Nc2cncc(C(F)(F)F)c2)cc1[C@@H]1CCN(c2cnn3ccc(N4CCN(C)CC4)nc23)C1 [Example 83, (S)-4-methyl-3-(1-(5-(4-methylpiperazin-1-yl)pyrazolo[1,5-a]pyrimidin-3-yl)pyrrolidin-3-yl)-N-(5-(trifluoromethyl)pyridin-3-yl)benzamide] | < 5 nM | 5 to 25 nM |
| Cc1ccc(C(=O)Nc2cncc(C(F)(F)F)c2)cc1[C@@H]1CCN(c2cnc3ccc(N4CCOCC4)nn23)C1 [Example 84, (S)-4-methyl-3-(1-(6-morpholinoimidazo[1,2-b]pyridazin-3-yl)pyrrolidin-3-yl)-N-(5-(trifluoromethyl)pyridin-3-yl)benzamide] | < 5 nM | 5 to 25 nM |
| CC(=O)Nc1cc(N2CC[C@@H](c3cc(C(=O)Nc4cncc(C(F)(F)F)c4)ccc3C)C2)ccn1 [Example 85, (S)-3-(1-(2-acetamidopyridin-4-yl)pyrrolidin-3-yl)-4-methyl-N-(5-(trifluoromethyl)pyridin-3-yl)benzamide] | < 5 nM | 5 to 25 nM |
| Cc1ccn2ncc(N3CC[C@@H](c4cc(C(=O)Nc5cncc(C(F)(F)F)c5)ccc4C)C3)c2n1 [Example 86, (S)-4-methyl-3-(1-(5-methylpyrazolo[1,5-a]pyrimidin-3-yl)pyrrolidin-3-yl)-N-(5-(trifluoromethyl)pyridin-3-yl)benzamide] | < 5 nM | 5 to 25 nM |
| CNC(=O)c1cc(N2CC[C@@H](c3cc(C(=O)Nc4cncc(C(F)(F)F)c4)ccc3C)C2)ccn1 [Example 87, (S)-N-methyl-4-(3-(2-methyl-5-((5-(trifluoromethyl)pyridin-3-yl)carbamoyl)phenyl)pyrrolidin-1-yl)picolinamide] | < 5 nM | 5 to 25 nM |
| Cc1ccc(C(=O)Nc2cncc(C(F)(F)F)c2)cc1[C@@H]1CCN(c2cnn(C)c2)C1 [Example 88, (S)-4-methyl-3-(1-(1-methyl-1H-pyrazol-4-yl)pyrrolidin-3-yl)-N-(5-(trifluoromethyl)pyridin-3-yl)benzamide] | 5 to 25 nM | 5 to 25 nM |
| Cc1ccc(C(=O)Nc2cncc(C(F)(F)F)c2)cc1[C@@H]1CCN(c2cnn3ccc(C(=O)N4CCOCC4)cc23)C1 [Example 89, (S)-4-methyl-3-(1-(5-(morpholine-4-carbonyl)pyrazolo[1,5-a]pyridin-3-yl)pyrrolidin-3-yl)-N-(5-(trifluoromethyl)pyridin-3-yl)benzamide] | < 5 nM | 5 to 25 nM |

Continued, values first:

| Ki (DDR1) | Ki (DDR2) | Structure (SMILES) |
| --- | --- | --- |
| < 5 nM | 5 to 25 nM | Cc1ccc(C(=O)Nc2cncc(C(F)(F)F)c2)cc1[C@@H]1CCN(c2cnn(C)c2C(N)=O)C1 [Example 65, (S)-1-methyl-4-(3-(2-methyl-5-((5-(trifluoromethyl)pyridin-3-yl)carbamoyl)phenyl)pyrrolidin-1-yl)-1H-pyrazole-5-carboxamide] |
| < 5 nM | < 5 nM | Cc1ccc(C(=O)Nc2cc(C(F)F)ccn2)cc1[C@@H]1CCN(c2cncnc2)C1 [Example 67, (S)-N-(4-(difluoromethyl)pyridin-2-yl)-4-methyl-3-(1-(pyrimidin-5-yl)pyrrolidin-3-yl)benzamide] |
| < 5 nM | 5 to 25 nM | CCc1cc(NC(=O)c2ccc(C)c([C@@H]3CCN(c4cncnc4)C3)c2)no1 [Example 69, (S)-N-(5-ethylisoxazol-3-yl)-4-methyl-3-(1-(pyrimidin-5-yl)pyrrolidin-3-yl)benzamide] |
| < 5 nM | < 5 nM | Cc1ccc(C(=O)Nc2cncc(C(F)(F)F)c2)cc1[C@@H]1CCN(c2cnc3ccccn23)C1 [Example 71, (S)-3-(1-(imidazo[1,2-a]pyridin-3-yl)pyrrolidin-3-yl)-4-methyl-N-(5-(trifluoromethyl)pyridin-3-yl)benzamide] |
| < 5 nM | 5 to 25 nM | Cc1ccc(C(=O)Nc2cncc(C(F)(F)F)c2)cc1[C@@H]1CCN(c2cnc3ccc(N4CCN(C)CC4)cn23)C1 [Example 72, (S)-4-methyl-3-(1-(6-(4-methylpiperazin-1-yl)imidazo[1,2-a]pyridin-3-yl)pyrrolidin-3-yl)-N-(5-(trifluoromethyl)pyridin-3-yl)benzamide] |
| < 5 nM | 5 to 25 nM | Cc1ccc(C(=O)Nc2cncc(C(F)(F)F)c2)cc1[C@@H]1CCN(c2cnc3ccc(N4CCN(CC#N)CC4)cn23)C1 [Example 73, (S)-3-(1-(6-(4-(cyanomethyl)piperazin-1-yl)imidazo[1,2-a]pyridin-3-yl)pyrrolidin-3-yl)-4-methyl-N-(5-(trifluoromethyl)pyridin-3-yl)benzamide] |
| < 5 nM | 5 to 25 nM | Cc1ccc(C(=O)Nc2cncc(C(F)(F)F)c2)cc1[C@@H]1CCN(c2cncc(OCCN3CCN(C)CC3)c2)C1 [Example 74, (S)-4-methyl-3-(1-(5-(2-(4-methylpiperazin-1-yl)ethoxy)pyridin-3-yl)pyrrolidin-3-yl)-N-(5-(trifluoromethyl)pyridin-3-yl)benzamide] |
| < 5 nM | < 5 nM | Cc1ccc(C(=O)Nc2cncc(C(F)(F)F)c2)cc1[C@@H]1CCN(c2cnccc2C#N)C1 [Example 75, (S)-3-(1-(4-cyanopyridin-3-yl)pyrrolidin-3-yl)-4-methyl-N-(5-(trifluoromethyl)pyridin-3-yl)benzamide] |
| < 5 nM | < 5 nM | COc1ccncc1N1CC[C@@H](c2cc(C(=O)Nc3cncc(C(F)(F)F)c3)ccc2C)C1 [Example 76, (S)-3-(1-(4-methoxypyridin-3-yl)pyrrolidin-3-yl)-4-methyl-N-(5-(trifluoromethyl)pyridin-3-yl)benzamide] |
| < 5 nM | 5 to 25 nM | Cc1ccc(C(=O)Nc2cncc(C(F)(F)F)c2)cc1[C@@H]1CCN(c2cnc3ccc(CN4CCOCC4)cn23)C1 [Example 77, (S)-4-methyl-3-(1-(6-(morpholinomethyl)imidazo [1,2-a]pyridin-3-yl)pyrrolidin-3-yl)-N-(5-(trifluoromethyl)pyridin-3-yl)benzamide] |
| < 5 nM | < 5 nM | Cc1ccc(C(=O)Nc2cncc(C(F)(F)F)c2)cc1[C@@H]1CCN(c2cnc3ccc(C#N)cn23)C1 [Example 78, (S)-3-(1-(6-cyanoimidazo[1,2-a]pyridin-3-yl)pyrrolidin-3-yl)-4-methyl-N-(5-(trifluoromethyl)pyridin-3-yl)benzamide] |
